The source made the active and inactive calls. The calls are words filed in the database; no cut-off is given here. A value given as a limit tells only on which side of the number the result lay.

The test system of assay [1] is U-251. As to the kind of experiment: Inhibition of mitochondrial respiration in human U-251 cells assessed as reduction in oxygen consumption rate at 10 uM pretreated for 24 hrs with sequential addition of oligomycin, FCCP and antimycin-A by seahorse XFe96 analyser based assay. In kind it is functional, cell-based.
Assay [2] can be described thus: Inhibition of rat liver TrxR using DTNB and NADPH as substrate preincubated for 10 mins followed by substrate addition. The assay is classed as tissue-based.
Assay [3] in a line: Cytotoxicity against human U87/TMZ cells assessed as reduction in cell viability incubated for 72 hrs by MTT assay. In kind it is functional, cell-based.
Assay [4] concerns U-251. The assay can be described thus: Inhibition of TrxR in human U-251 cells at 10 uM measured after 12 hrs by colorimetry. The assay is classed as cell-based.
A further assay has as its system HepG2. As to the kind of experiment: Cytotoxicity against human HepG2 cells assessed as reduction in cell viability incubated for 72 hrs by MTT assay. In kind it is functional, cell-based. As to conditions: HepG2, 72 h.
The subject of another assay is U-87 MG. As to the kind of experiment: Cytotoxicity against human U87 cells assessed as reduction in cell viability incubated for 72 hrs by MTT assay. In kind it is functional, cell-based, U-87MG ATCC.
Assay [5] has as its system U-251. As to the kind of experiment: Cytotoxicity against human U-251 cells assessed as reduction in cell viability incubated for 72 hrs by MTT assay. The assay is classed as functional, cell-based. The note with it: U-251, 72 h.
The test system of the next assay is HUVEC. As to the kind of experiment: Cytotoxicity against HUVEC cells assessed as reduction in cell viability incubated for 72 hrs by MTT assay. In kind it is cell-based. The note with it: Homo sapiens.
In a further assay the test system is C6. As to the kind of experiment: Cytotoxicity against rat C6 cells assessed as reduction in cell viability incubated for 72 hrs by MTT assay. The assay is classed as functional, cell-based. The note with it: C6, 72 h.
The next assay has as its system K562. The assay can be described thus: Cytotoxicity against human K562 cells assessed as reduction in cell viability incubated for 72 hrs by MTT assay. The assay is classed as functional, cell-based. The note with it: K562, 72 h.
The test system of assay [6] is U-251. The assay can be described thus: Induction of mitochondrial stress in human U-251 cells assessed as decrease in ATP production after 24 hrs by microplate reader analysis. The assay is classed as functional, cell-based.
The nature of assay [7]: Cytotoxicity against human […] cells assessed as reduction in cell viability incubated for 72 hrs by MTT assay. The assay is classed as functional, cell-based.
For a further assay, the system named is MDA-MB-231. As to the kind of experiment: Cytotoxicity against human MDA-MB-231 cells assessed as reduction in cell viability incubated for 72 hrs by MTT assay. The assay is classed as functional, cell-based. The note with it: MDA-MB-231, 72 h.
A further assay concerns A549. The assay can be described thus: Cytotoxicity against human A549 cells assessed as reduction in cell viability incubated for 72 hrs by MTT assay. The assay is classed as functional, cell-based. The note with it: A549, 72 h.
The nature of assay [8]: Cytotoxicity against human SHG-44 cells assessed as reduction in cell viability incubated for 72 hrs by MTT assay. In kind it is functional, cell-based. The note with it: SHG-44, 72 h.

Regarding `COc1cc(/C=C/C(=O)/C=C(O)/C=C/c2ccc(O)cc2)ccc1O`, the outcome with U-251 [1] and in the assay with U-251 [6] was inactive. Also, the IC50 in assay [2] was found to be 0.77 µM; in assay [3] it was 21.5 µM; with HepG2, 10.7 µM; in the assay on U-87 MG it was 5.45 µM; with U-251 [5], 2.72 µM; in the assay with HUVEC, 32.6 µM. Also, the IC50 in the assay on C6 came to 7.16 µM; with K562, 3.86 µM; in [7], 17.3 µM; in the assay on MDA-MB-231, 9.36 µM; with A549, 5.64 µM; in [8], 4.98 µM. In addition, the inhibition result in the assay with U-251 [4] is “Active”.

In the case of `OCCCCCCCCCC[P+](c1ccccc1)(c1ccccc1)c1ccccc1`, the IC50 (in assay [2]; in the assay with HepG2; in the assay with U-251 [5]; with K562; in the assay on MDA-MB-231; in the assay on A549) was > 100 µM in each case.

Take `COc1cc(/C=C/C(=O)CC(=O)/C=C/c2ccc(O)c(OC)c2)ccc1O` [CURCUMIN]: the IC50 in the assay on U-251 [5] was found to be 25.8 µM; in the assay on K562 it was 46.8 µM; in the assay with MDA-MB-231 it was 31.4 µM; in the assay on A549, 24.2 µM.
